{"source": "patent US11905263B1", "about": "“4-nitro-N′-(2-(5-phenyl-1,3,4-oxadiazol-2-ylthio)acetoxy)benzimidamide as an antimicrobial compound” (KING FAISAL UNIVERSITY, priority 2023, dated 2024)", "type_in_all_cases": "cell-based", "key": {"Bacillus cereus": {"system": "Bacillus cereus", "test": "Agar plate disc-diffusion, antibacterial, inhibition zone", "settings": "Gram positive", "method": "(§1) The agar plate disc-diffusion method was applied. […] The discs were then placed onto the surface of agar plates (nutrient agar for bacteria and Sabouraud's dextrose agar for fungi) seeded with the test organism. Each plate contained 15 mL of the agar medium, previously seeded with 0.2 mL of the broth culture of each organism pregrown for 18 hours. The plates were incubated at 37° C. for 48 hours, and 72 hours for fungi. The inhibition zones was measured in mm. Discs impregnated with DMSO were used as a control, and its inhibition zone was subtracted from the tested compound actual inhibition zone."}, "Escherichia coli": {"system": "Escherichia coli", "test": "Agar plate disc-diffusion, antibacterial, inhibition zone", "settings": "Gram negative", "method": "as §1"}, "Pseudomonas aeruginosa": {"system": "Pseudomonas aeruginosa", "test": "Agar plate disc-diffusion, antibacterial, inhibition zone", "settings": "Gram negative", "method": "as §1"}, "Staphylococcus aureus": {"system": "Staphylococcus aureus", "test": "Agar plate disc-diffusion, antibacterial, inhibition zone", "settings": "Gram positive", "method": "as §1"}, "Aspergillus flavus": {"system": "Aspergillus flavus", "test": "Agar plate disc-diffusion, antifungal, inhibition zone", "settings": "fungal", "method": "as §1"}, "[1]": {"system": "Chrysosporium keratinophilum", "test": "Agar plate disc-diffusion, antifungal, inhibition zone", "settings": "fungal", "method": "as §1"}, "[2]": {"settings": "A = concentration of comp. = 10,000 μL"}, "[3]": {"settings": "B = concentration of comp. = 30,000 μL"}, "[4]": {"settings": "C = concentration of comp. = 50,000 μL"}}, "data": [{"smiles": "N/C(=N\\OC(=O)CSc1nnc(-c2ccccc2)o1)c1ccc([N+](=O)[O-])cc1", "note": "[Compound 3, 4-nitro-N′-(2-(5-phenyl-1,3,4-oxadiazol-2-ylthio)acetoxy)benzimidamide]", "values": [{"measurement": "inhibition zone, Bacillus Cereus", "setting": "Bacillus cereus; [2]", "result": 20, "unit": "mm"}, {"measurement": "inhibition zone, Bacillus Cereus", "setting": "Bacillus cereus; [3]", "result": 25, "unit": "mm"}, {"measurement": "inhibition zone, Bacillus Cereus", "setting": "Bacillus cereus; [4]", "result": 34, "unit": "mm"}, {"measurement": "inhibition zone, Escherichia coli", "setting": "Escherichia coli; [2]", "result": 27, "unit": "mm"}, {"measurement": "inhibition zone, Escherichia coli", "setting": "Escherichia coli; [3]", "result": 33, "unit": "mm"}, {"measurement": "inhibition zone, Escherichia coli", "setting": "Escherichia coli; [4]", "result": 48, "unit": "mm"}, {"measurement": "inhibition zone, Pseudomonas aeruginosa", "setting": "Pseudomonas aeruginosa; [2]", "result": 19, "unit": "mm"}, {"measurement": "inhibition zone, Pseudomonas aeruginosa", "setting": "Pseudomonas aeruginosa; [3]", "result": 25, "unit": "mm"}, {"measurement": "inhibition zone, Pseudomonas aeruginosa", "setting": "Pseudomonas aeruginosa; [4]", "result": 36, "unit": "mm"}, {"measurement": "inhibition zone, Staphylococcus aureus", "setting": "Staphylococcus aureus; [2]", "result": 19, "unit": "mm"}, {"measurement": "inhibition zone, Staphylococcus aureus", "setting": "Staphylococcus aureus; [3]", "result": 22, "unit": "mm"}, {"measurement": "inhibition zone, Staphylococcus aureus", "setting": "Staphylococcus aureus; [4]", "result": 38, "unit": "mm"}, {"measurement": "inhibition zone, Aspergillus flavus", "setting": "Aspergillus flavus; [2]", "result": 17, "unit": "mm"}, {"measurement": "inhibition zone, Aspergillus flavus", "setting": "Aspergillus flavus; [3]", "result": 23, "unit": "mm"}, {"measurement": "inhibition zone, Aspergillus flavus", "setting": "Aspergillus flavus; [4]", "result": 35, "unit": "mm"}, {"measurement": "inhibition zone, Chrysosporium keratinophilum", "setting": "[1]; [2]", "result": 26, "unit": "mm"}, {"measurement": "inhibition zone, Chrysosporium keratinophilum", "setting": "[1]; [3]", "result": 28, "unit": "mm"}, {"measurement": "inhibition zone, Chrysosporium keratinophilum", "setting": "[1]; [4]", "result": 43, "unit": "mm"}]}]}
